Test results reported in PMC9611758, “Bioactive Platinum(IV) Complexes Incorporating Halogenated Phenylacetates” (Molecules, 2022).
“Also recorded” adds a separate entry of the source. Where two headings read alike, the source gives them in different places.

Columns and labels:
[1] = tested on: HT29 colon; parameters: method as in PMID 36142383; settings: MTT assay, 72 h; cited from earlier work
[2] = tested on: A2780 ovarian; parameters: method as in PMID 36142383; settings: MTT assay, 72 h; cited from earlier work
[3] = tested on: MIA pancreas; parameters: method as in PMID 36142383; settings: MTT assay, 72 h; cited from earlier work
[4] = tested on: BE2-C neuroblastoma; parameters: method as in PMID 36142383; settings: MTT assay, 72 h; cited from earlier work
[5] = tested on: A431 skin; parameters: method as in PMID 36142383; settings: MTT assay, 72 h; cited from earlier work
[6] = tested on: SJ-G2 glioblastoma; parameters: method as in PMID 36142383; settings: MTT assay, 72 h; cited from earlier work
[7] = tested on: Du145 prostate; parameters: method as in PMID 36142383; settings: MTT assay, 72 h; cited from earlier work
[8] = tested on: ADDP-resistant ovarian variant; parameters: method as in PMID 36142383; settings: MTT assay, 72 h; cited from earlier work
[9] = tested on: H460 lung; parameters: method as in PMID 36142383; settings: MTT assay, 72 h; cited from earlier work
[10] = tested on: U87 glioblastoma; parameters: method as in PMID 36142383; settings: MTT assay, 72 h; cited from earlier work
[11] = tested on: MCF-7 breast; parameters: method as in PMID 36142383; settings: MTT assay, 72 h; cited from earlier work
[12] = tested on: ADDP-resistant ovarian variant; experiment: MTT growth inhibition assay, ADDP; type: cell-based, human; settings: MTT assay, 72 h
[13] = tested on: A2780 ovarian; experiment: MTT growth inhibition assay, A2780; type: cell-based, human; settings: 72 h
[14] = tested on: BE2-C neuroblastoma; experiment: MTT growth inhibition assay, BE2-C; type: cell-based, human; settings: 72 h
[15] = tested on: MCF-7 breast; experiment: MTT growth inhibition assay, MCF-7; type: cell-based, human; settings: for GI50: MTT assay, 72 h
[16] = tested on: U87 glioblastoma; experiment: MTT growth inhibition assay, U87; type: cell-based, human; settings: 72 h
[17] = tested on: non-tumour derived MCF10A breast line; experiment: MTT growth inhibition assay, MCF10A; type: cell-based, human; settings: 72 h
[18] = Reduction experiments with AsA by 1H-NMR and 1D-195Pt-NMR; type: physicochemical; settings: D2O, 37 °C; for T50% (approximate time at which 50% reduction occurs): 10 mM PBS (~7.4 pH); for extent of reduction 1 h after the final 1H-NMR experiment (1D-195Pt-NMR): regions −2800 and 400 ppm
Text: Platinum(IV) complexes are reduced to their platinum(II) precursors by intracellular biological reducing agents such as AsA or GSH in tumour cells. However, the precise mechanism by which reduction occurs is not fully understood. In this paper, reduction reaction experiments were undertaken on the synthesised platinum(IV) complexes, 1–8, with the aid of ^1H-NMR and 1D-^195Pt-NMR spectroscopy. The method used for the reduction reaction experiments was adapted from the literature without modifications. A total of 10 mM PBS (~7.4 pH) was selected as media, and AsA was used as the biological reducing agent to investigate the reduction property of 1–8. Prior to the reduction reaction experiments, a control was prepared where each metal complex was dissolved with PBS in D2O. 1D-^195Pt-NMR was measured within the regions of −2800 and 400 ppm (30 min per region), at 37 °C. This was undertaken to confirm that the PBS would not interfere with the reduction process of the metal complexes. […] The approximate time points for the studied complexes at which an estimated 50% reduction had occurred, in the presence of AsA, as represented by T50%, are summarised in Table 6.
The reduction properties of 1–8 were monitored using ^1H-NMR and 1D-^195Pt-NMR spectroscopy on a 400 MHz Bruker (Melbourne, VIC, Australia) Avance Spectrometer. A sequence of ^1H-NMR experiments was carried out for 1 h at 37 °C, followed by 1D-^195Pt-NMR within the regions of −2800 and 400 ppm. An amount of 10 mM PBS (~7.4 pH) was transferred to a vial and reduced to dryness through rotary evaporation. AsA (~1 mg) was combined with the metal complex (~5 mg) and transferred to the vial containing the dried PBS. A total of 600 µL of D2O was then added to the vial to dissolve the complex, AsA, and the PBS together.

[19] = Lipophilicity by HPLC (log kw); type: physicochemical; settings: for log kw: chromatographic lipophilicity index, extrapolated to 100% d.i.H2O; for log kw (y-intercept of log k versus [CH3CN] % plot, Figure S80): linear fit
Text: For lipophilicity measurements, HPLC was utilised instead of the traditional shake-flask method, as described previously. Recent studies have also reported the efficiency of HPLC in measuring the lipophilicity of compounds [79, 80]. Each complex was eluted under several isocratic ratios. A standard curve was generated to calculate the log value of the capacity factor (log k) according to Equation (1). Following Equation (2), the percentage of organic solvent (CH3CN) in the mobile phase from each isocratic run was plotted against log kw (Figure S80). Log kw is the chromatographic lipophilicity index or measure of lipophilicity of the complex, so a higher value corresponds to greater lipophilicity. Because the selected axial ligands in this study contain F, Cl, Br, and I, it was only appropriate to determine the influence of the halogens on the overall lipophilicity of the platinum(IV) complexes. […] Conversely, the least lipophilic complex was the phen derivative containing 4-FPA, 3, with a log kw of 0.25. Furthermore, for the phen derivatives, the order of increasing lipophilicity was 3 > 1 > 5 > 7, which corresponds to the order of increasing size of the halogens, F > Cl > Br > I. This pattern was also observed with the 5,6-Me2phen derivatives (4 > 2 > 6 > 8), thereby confirming that the halogens increased the order of lipophilicity accordingly based on their size.
For lipophilicity measurements, analytical HPLC was utilised. Elution profiles were acquired on an Agilent (Melbourne, VIC, Australia) Technologies 1260 Infinity instrument equipped with a Phenomenex Onyx^TM Monolithic C18-reverse phase column (100 × 4.6 mm, 5 µm pore size) (Sydney, NSW, Australia). The mobile phase consisted of solvents, A (0.06% TFA in d.i.H2O) and B (0.06% TFA in CH3CN/d.i.H2O (90:10)). Potassium iodide was used as an external dead volume marker to determine the dead time of the column. Retention times (TR) were measured at varying isocratic ratios ranging from 30 to 36% of solvent B at 1 mL·min^−1 mL. An injection volume of 10 µL was utilised. Capacity factors were determined according to Equation (1):(1) k=(TR−T0)/T0 where k is the capacity factor, TR is the retention time of the analyte, and T0 represents the dead time. A minimum of four different mobile compositions were used for each complex to calculate k. A linear plot was generated of log k against the concentration of CH3CN in the mobile phase to determine the value of log kw expressed by Equation (2):(2) logk=Sφ+logkw where S is the slope, φ is the concentration of the CH3CN in the mobile phase, and log kw represents the capacity factor of the complex in 100% d.i.H2O. Extrapolation of this linear plot to the y-intercept indicates the log kw value.

[20] = tested on: SJ-G2 glioblastoma; experiment: MTT growth inhibition assay, SJ-G2; type: cell-based, human; settings: 72 h
[21] = tested on: HT29 colon cells; experiment: ROS detection assay (DCFH-DA); type: cell-based, human; settings: HT29 colon cells, treated at GI50 concentration (TBHP positive control 20 μM)
Text: Although ROS is required for cancer cell function and progression, it can induce programmed cell death or apoptosis. […] In this study, we report the ROS activity of the studied platinum(IV) complexes, 1–8, together with the individual axial ligands (4-CPA, 4-FPA, 4-BPA, and 4-IPA) in the human cancer cell line, HT29 colon (Figure 19, Table 8, and Figure S95). The ROS potential of their platinum(II) and platinum(IV) precursors in the same cell line is also presented for comparison purposes (Table 8). […] HT29 colon cells were stained by DCFH-DA and then treated with the complexes at each specific GI50 concentration. Upon ROS production, the DCFH-DA produced dichlorodihydrofluorescein, a fluorescent product. The measured fluorescence was, therefore, proportional to the produced ROS.
To investigate the presence of ROS in treated cells, a DCFDA/H2DCFDA-cellular ROS Assay Kit (Abcam, Cambridge, MA, USA) was used, as previously described. A total of 25,000 cells/mL of HT29 cells in DMEM were seeded in 96-well plates. Cells were washed with 1X kit buffer, and then stained with 25 μM 2′,7′-dichlorofluorescein diacetate (DCFH-DA) and incubated for 45 min. DCFH-DA was then removed, and cells were then re-washed with 1X kit buffer, after which phenol red free media was added. Cells were then treated with a GI50 drug concentration for each complex. The plates were directly scanned to measure fluorescence (relative fluorescence units (RFU)) at different time points using the Glo-Max®-Multimode microplate reader (Promega Corporation, Alexandra, VIC, Australia) at an excitation/emission of 485/535 nm. To generate the positive control (20 μM tert-butyl hydroperoxide (TBHP)), cells were washed with 1X kit buffer, and stained with DCFDA (25 μM) for 45 min; this was removed and TBHP was added in phenol red free media, and the resulting solution was scanned as described above.

[22] = tested on: Du145 prostate; experiment: MTT growth inhibition assay, Du145; type: cell-based, human; settings: MTT assay, 72 h
[23] = tested on: panel of cell lines; experiment: MTT growth inhibition assay, whole panel of cell lines; type: cell-based, human; settings: average over the cell lines tested, MTT assay, 72 h
[24] = tested on: MIA pancreas; experiment: MTT growth inhibition assay, MIA; type: cell-based, human; settings: 72 h
[25] = tested on: HT29 colon; experiment: MTT growth inhibition assay, HT29; type: cell-based, human; settings: MTT assay, 72 h
[26] = tested on: A431 skin; experiment: MTT growth inhibition assay, A431; type: cell-based, human; settings: 72 h
[27] = tested on: H460 lung; experiment: MTT growth inhibition assay, H460; type: cell-based, human; settings: 72 h

SMILES	GI50 [12]	GI50 [13]	GI50 [14]	GI50 [15]	GI50 [16]	GI50 [17]	T50% (approximate time at which 50% reduction occurs) ([18]; 1H-NMR)	extent of reduction 1 h after the final 1H-NMR experiment (1D-195Pt-NMR) ([18]; PBS)	log kw [19]	log kw (y-intercept of log k versus [CH3CN] % plot, Figure S80) [19]	GI50 [20]	ROS production 24 h [21]	ROS production 48 h [21]	ROS production 72 h [21]	GI50 [22]	GI50 [23]	GI50 [24]	GI50 [25]	GI50 [26]	GI50 [27]	further results
O=C1[O][Pt]2([NH][C@@H]3CCCC[C@H]3[NH]2)[O]C1=O (relative stereo) [Oxaliplatin, trans-L-(1R,2R-diaminocyclohexane) oxalatoplatinum(II)]	–	–	–	–	–	–	–	–	–	–	–	–	–	–	–	–	–	–	–	–	GI50 [1]: 0.9 ± 0.2 µM; GI50 [2]: 0.16 ± 0.1 µM; GI50 [3]: 0.9 ± 0.2 µM; GI50 [4]: 0.9 ± 0.2 µM; GI50 [5]: 4.1 ± 0.5 µM; GI50 [6]: 3 ± 1.2 µM; GI50 [7]: 2.9 ± 0.4 µM; GI50 [8]: 0.8 ± 0.1 µM; GI50 [9]: 1.6 ± 0.1 µM; GI50 [10]: 1.8 ± 0.2 µM; GI50 [11]: 0.5 ± 0.1 µM
N[C@H]1CCCC[C@@H]1N.O=C(Cc1ccc(I)cc1)[O][Pt+2]1([OH])[N]2C=CC=c3ccc4c(c32)[N]1C=CC=4 [Complex 7, [Pt^IV(phen)(SS-DACH)(4-IPA)(OH)]^2+]	0.28 ± 0.024 µM	0.28 ± 0.042 µM	0.68 ± 0.038 µM	0.49 ± 0.134 µM	1.01 ± 0.095 µM	0.28 ± 0.03 µM	30 min	partial reduction; also recorded: traces of platinum(IV) species were still observed	0.90	0.895	0.59 ± 0.023 µM	211 ± 9.1 RFU	281 ± 12 RFU	322 ± 17 RFU	0.11 ± 0.025 µM	0.432 ± 0.06 µM	0.36 ± 0.04 µM	0.22 ± 0.033 µM	0.5 ± 0.18 µM	0.38 ± 0.059 µM	–
Cc1c(C)c2c3c4c1=CC=C[N]4[Pt+2]([OH])([O]C(=O)Cc1ccc(Cl)cc1)[N]3C=CC=2.N[C@H]1CCCC[C@@H]1N [Complex 2, [Pt^IV(5,6-Me2phen)(SS-DACH)(4-CPA)(OH)]^2+]	0.026 ± 0.0045 µM	0.043 ± 0.01 µM	0.11 ± 0.018 µM	0.18 ± 0.077 µM	0.079 ± 0.03 µM	0.035 ± 0.0078 µM	20 to 25 min	entirely reduce back to its platinum(II) precursor, 56MESS; also recorded: complete reduction	–	0.9477	0.1 ± 0.045 µM	358 ± 21 RFU	508 ± 16 RFU	564 ± 10 RFU	0.033 ± 0.021 µM	0.075 ± 0.03 µM	0.028 ± 0.0055 µM	0.022 ± 0.0092 µM	0.041 ± 0.008 µM	0.2 ± 0.17 µM	fold less potent than 56MESS [15]: ~2 fold; time at which reduction starts ([18]; PBS, 1H-NMR): 5 min; extent of reduction at 1 h (1H-NMR) ([18]; PBS, 1 h): almost reduced
N[C@H]1CCCC[C@@H]1N.O=C([O-])Cc1ccc(F)cc1.[OH-].[Pt+4].c1cnc2c(c1)ccc1cccnc12 [Complex 3, [Pt^IV(phen)(SS-DACH)(4-FPA)(OH)]^2+]	0.25 ± 0.01 µM	0.34 ± 0.07 µM	0.81 ± 0.2 µM	0.74 ± 0.06 µM	1 ± 0.15 µM	0.32 ± 0.01 µM	5 to 10 min	complete reduction	0.25	0.249	0.337 ± 0.06 µM	305 ± 28 RFU	409 ± 22 RFU	558 ± 13 RFU	0.1 ± 0.017 µM	0.426 ± 0.06 µM	0.23 ± 0.03 µM	0.21 ± 0.03 µM	0.45 ± 0.06 µM	0.32 ± 0.03 µM	–
